Data as given in patent US20060128654A1, “Pharmaceutical formulation of cytidine analogs and derivatives” (priority 2004, published 2006).

Experiment: Chemical stability of decitabine in cyclodextrin solutions (HPLC potency, % of total peak areas at 220 nm)
Assay type: physicochemical
Experimental: The chemical stability of decitabine in the cyclodextrin solutions and in the phophate buffer as prepared above was determined. The initial decitabine concentration for all the solutions was 17-18 mg/mL at the beginning of the experiment at 2-8° C.; 9-10 mg/mL at the beginning of the experiment at 25° C. Decitabine potency was assayed by a HPLC method, and expressed as a percentage of total peak areas at 220 nm.

Stability in aqueous solution with cyclodextrins as excipients (2-8° C., initial 17-18 mg/mL, FIG. 1): dramatically improve the stability | Stabilization effect at various HPBCD concentrations (25° C., FIG. 3): concentration dependent | Stability in aqueous solution with cyclodextrins as excipients (25° C., initial 9-10 mg/mL, FIG. 2): dramatically improve the stability
Structure (SMILES): Nc1ncn([C@H]2C[C@H](O)[C@@H](CO)O2)c(=O)n1 [decitabine, 5-aza-2′-deoxycytidine]
